Reference: ChEMBL document CHEMBL1152360, “Structure-activity relationships of memoquin: Influence of the chain chirality in the multi-target mechanism of action” (Bioorg Med Chem Lett, 2009)

Tests used:
Acetylcholinesterase [1] = target: T1, Acetylcholinesterase (Homo sapiens, UniProt P22303); experiment: Inhibition of human recombinant AChE preincubated 20 mins before substrate addition by Ellman method
Cholinesterase = Cholinesterase (Homo sapiens, UniProt P06276); experiment: Inhibition of human recombinant BchE preincubated 20 mins before substrate addition by Ellman method
Cholinesterase, sequence (P06276 whole entry): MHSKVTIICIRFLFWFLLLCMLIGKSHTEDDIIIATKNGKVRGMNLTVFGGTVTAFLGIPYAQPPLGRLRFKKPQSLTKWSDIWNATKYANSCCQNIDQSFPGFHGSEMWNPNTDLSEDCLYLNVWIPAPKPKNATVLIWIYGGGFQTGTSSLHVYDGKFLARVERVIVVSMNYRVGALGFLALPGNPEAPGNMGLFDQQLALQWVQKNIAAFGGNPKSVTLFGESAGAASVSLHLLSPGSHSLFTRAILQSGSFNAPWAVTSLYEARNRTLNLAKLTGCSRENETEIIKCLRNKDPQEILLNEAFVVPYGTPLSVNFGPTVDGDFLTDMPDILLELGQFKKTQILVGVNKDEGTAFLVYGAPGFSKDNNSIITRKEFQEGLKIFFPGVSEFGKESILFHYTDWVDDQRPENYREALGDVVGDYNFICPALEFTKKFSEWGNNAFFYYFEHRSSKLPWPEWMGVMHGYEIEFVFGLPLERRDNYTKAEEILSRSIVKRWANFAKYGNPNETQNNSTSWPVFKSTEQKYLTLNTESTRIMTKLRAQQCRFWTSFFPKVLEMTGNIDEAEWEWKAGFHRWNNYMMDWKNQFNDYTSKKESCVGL

[2] = target: Cholinesterases; ACHE & BCHE (Homo sapiens) (UniProt P06276+P22303); experiment: Selectivity ratio of IC50 for human recombinant BchE to IC50 for human recombinant AChE
Cholinesterases; ACHE & BCHE (Homo sapiens), sequence (P06276 whole entry, looked up): as the sequence (P06276 whole entry) above
Cholinesterases; ACHE & BCHE (Homo sapiens), sequence (P22303 whole entry, looked up): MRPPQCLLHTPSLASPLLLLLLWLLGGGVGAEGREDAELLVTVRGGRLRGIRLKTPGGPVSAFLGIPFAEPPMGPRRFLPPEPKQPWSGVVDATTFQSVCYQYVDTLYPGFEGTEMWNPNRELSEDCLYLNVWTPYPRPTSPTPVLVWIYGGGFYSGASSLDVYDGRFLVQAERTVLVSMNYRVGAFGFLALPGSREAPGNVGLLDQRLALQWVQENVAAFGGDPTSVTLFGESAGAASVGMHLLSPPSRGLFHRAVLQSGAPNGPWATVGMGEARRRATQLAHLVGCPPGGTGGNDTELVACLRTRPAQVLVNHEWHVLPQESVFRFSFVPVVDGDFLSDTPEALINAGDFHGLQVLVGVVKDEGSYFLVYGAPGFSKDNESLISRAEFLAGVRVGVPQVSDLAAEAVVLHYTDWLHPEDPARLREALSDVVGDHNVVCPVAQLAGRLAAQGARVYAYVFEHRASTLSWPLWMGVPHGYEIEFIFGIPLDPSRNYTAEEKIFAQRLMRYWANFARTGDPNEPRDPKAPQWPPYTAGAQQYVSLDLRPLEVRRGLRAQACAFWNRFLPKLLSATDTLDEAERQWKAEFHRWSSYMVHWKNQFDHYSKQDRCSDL

Acetylcholinesterase [3] = target: T1, Acetylcholinesterase; experiment: Inhibition of human AChE-induced amyloid beta (1-40) aggregation by thioflavin T fluorescence-based assay
[4] = target: Amyloid-beta precursor protein (Homo sapiens) (UniProt P05067); experiment: Inhibition of self-assembly of human amyloid beta (1-42) aggregation at 10 uM by thioflavin T-based fluorometric assay
Amyloid-beta precursor protein (Homo sapiens), sequence (P05067 whole entry): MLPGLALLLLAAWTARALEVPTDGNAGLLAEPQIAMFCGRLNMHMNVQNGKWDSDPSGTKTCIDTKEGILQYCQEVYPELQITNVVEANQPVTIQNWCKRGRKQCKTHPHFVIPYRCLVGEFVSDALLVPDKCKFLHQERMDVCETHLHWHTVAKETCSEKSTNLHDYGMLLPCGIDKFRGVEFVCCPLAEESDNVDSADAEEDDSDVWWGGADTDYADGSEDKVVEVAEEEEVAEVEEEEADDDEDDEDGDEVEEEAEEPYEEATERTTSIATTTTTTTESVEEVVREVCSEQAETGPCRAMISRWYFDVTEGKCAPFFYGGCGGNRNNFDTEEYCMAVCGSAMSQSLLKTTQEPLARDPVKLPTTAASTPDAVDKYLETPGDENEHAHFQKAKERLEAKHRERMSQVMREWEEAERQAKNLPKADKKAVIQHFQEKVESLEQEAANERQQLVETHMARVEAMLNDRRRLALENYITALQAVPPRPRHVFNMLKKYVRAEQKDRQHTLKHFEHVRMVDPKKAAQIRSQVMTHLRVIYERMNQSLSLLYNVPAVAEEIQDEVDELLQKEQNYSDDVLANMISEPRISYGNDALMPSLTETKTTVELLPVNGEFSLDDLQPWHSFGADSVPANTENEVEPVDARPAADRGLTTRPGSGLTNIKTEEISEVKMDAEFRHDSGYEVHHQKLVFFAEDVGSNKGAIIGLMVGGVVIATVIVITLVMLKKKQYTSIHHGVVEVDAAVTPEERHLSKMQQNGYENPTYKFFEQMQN

T1 sequence (P22303 whole entry): as the sequence (P22303 whole entry, looked up) above

| Compound | IC50 (Acetylcholinesterase [1]) | IC50 (Cholinesterase) | Ratio IC50 [2] | IC50 (Acetylcholinesterase [3]) | inhibition [4] |
| --- | --- | --- | --- | --- | --- |
| CCN(CCCCCCNC1=CC(=O)C(NCCCCCCN(CC)[C@@H](C)c2ccccc2OC)=CC1=O)[C@@H](C)c1ccccc1OC | 4.03 nM | 958 nM | 238 | 7910 nM | 62.3% |
| CCN(CCCCCCNC1=CC(=O)C(NCCCCCCN(CC)[C@@H](C)c2ccccc2OC)=CC1=O)[C@H](C)c1ccccc1OC | 0.36 nM | 982 nM | 2730 | 11000 nM | 63.5% |
| CCN(CCCCCCNC1=CC(=O)C(NCCCCCCN(CC)[C@H](C)c2ccccc2OC)=CC1=O)[C@H](C)c1ccccc1OC | 0.5 nM | 1480 nM | 2960 | 9340 nM | 63.9% |
| CCN(CCCCCCNC1=CC(=O)C(NCCCCCCN(CC)Cc2ccccc2OC)=CC1=O)Cc1ccccc1OC | – | – | 929 | – | – |
